Values quoted from earlier work, collected in patent US10292948B2 (Torrent Pharmaceuticals Limited, priority 2017, dated 2019).

Key:
[1] = pH dependent

CC[C@@H](c1cccc(O)c1)[C@@H](C)CN(C)C.Cl [Tapentadol, 3-[(1R,2R)-3-(dimethylamino)-1-ethyl-2-methylpropyl]phenol]
time of maximum serum concentration (after oral dosing): around 1.25 hours
administered tapentadol metabolized (first-pass metabolism) (oral administration): about 97%
bioavailability (oral administration): 32%
time after administration at which absorption occurs (oral formulations): at least 45 minutes
solubility [1]: highly soluble
